These results are taken from US12162856B2, “β-catenin and B-cell lymphoma 9 (BCL9) inhibitors” (H. LEE MOFFITT CANCER CENTER AND RESEARCH INSTITUTE, INC., priority 2019, dated 2024).

The target in this assay is T1, β-catenin/BCL9 PPI (Homo sapiens, UniProt P35222).
T1 construct: Wild-type full-length β-catenin were cloned into a pET-28b vector; made in house; host or cells: Escherichia coli BL21 DE3 (β-catenin); BCL9 peptide chemically synthesized
T1 sequence (P35222 1-781): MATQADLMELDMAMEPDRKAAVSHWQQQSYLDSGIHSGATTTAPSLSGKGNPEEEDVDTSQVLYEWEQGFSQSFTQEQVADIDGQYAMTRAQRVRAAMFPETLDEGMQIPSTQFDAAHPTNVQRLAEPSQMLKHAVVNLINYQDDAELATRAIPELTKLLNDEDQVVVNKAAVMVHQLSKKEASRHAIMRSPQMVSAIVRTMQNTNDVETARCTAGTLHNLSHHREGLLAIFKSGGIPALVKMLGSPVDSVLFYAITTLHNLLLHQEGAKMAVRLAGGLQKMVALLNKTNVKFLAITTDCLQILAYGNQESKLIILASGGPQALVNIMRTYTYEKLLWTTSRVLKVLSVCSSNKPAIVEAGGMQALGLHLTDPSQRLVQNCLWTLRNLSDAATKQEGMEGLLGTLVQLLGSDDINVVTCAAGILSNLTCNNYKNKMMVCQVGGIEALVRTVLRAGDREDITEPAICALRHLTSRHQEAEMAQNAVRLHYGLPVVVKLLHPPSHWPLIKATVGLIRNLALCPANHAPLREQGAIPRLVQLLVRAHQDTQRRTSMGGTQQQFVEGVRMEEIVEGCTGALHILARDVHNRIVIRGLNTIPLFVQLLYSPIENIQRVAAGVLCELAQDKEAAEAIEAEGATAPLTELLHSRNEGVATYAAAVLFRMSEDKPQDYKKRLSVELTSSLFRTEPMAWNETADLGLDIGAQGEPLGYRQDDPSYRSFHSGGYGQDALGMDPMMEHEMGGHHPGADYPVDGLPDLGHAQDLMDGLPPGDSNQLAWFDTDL
Put plainly: AlphaScreen competitive inhibition assay of the β-catenin/BCL9 PPI. The format is binding. The note with it: mean ± SD, triplicate, Ki derived from IC50 (Nikolovska-Coleska equation). As to the method: Protein expression and purification. Wild-type full-length β-catenin were cloned into a pET-28b vector carrying a C-terminal 6×histidine (Novagen), and transformed into Escherichia coli BL21 DE3 (Novagen). Cells were cultured in LB medium with 30 μg/mL kanamycin until the OD600 was approximately 0.8, and then protein expression was induced with 400 μM of IPTG at 20° C. overnight. Cells were lysed by sonication. The proteins were purified by Ni-NTA affinity chromatography (30210, Qiagen) and dialyzed against a buffer containing 20 mM of Tris (pH 8.5), 100 mM NaCl, 10% glycerol, and 3 mM DTT. The purity of β-eaten in was greater than 95% as determined by SDS-PAGE gel analysis. Native non-denaturing gel electrophoresis was performed to confirm the homogeneity of the purified proteins. Thermal-shift assay was performed on an iCycler iQ Real Time Detection System (Bio-Rad) to monitor protein stability and detect protein aggregation. Protein unfolding was evaluated through measuring the S15 fluorescence changes of fluorescent dye Sypro Orange when interacting with wild-type or mutant β-catenin proteins. A temperature increment of […] was applied. CD spectra were measured on a J-815 spectropolarimeter (Jasco). All spectra were recorded at room temperature, and the baseline control containing all of the substances except protein. Sample were prepared at a concentration around 1-5 μM in a buffer of 10 mM potassium phosphate and 100 mM potassium fluoride at pH 7.0 to ensure that the transmission of light through the sample was not restricted. All proteins were stable and no aggregation was observed under storage or assay conditions. Proteins were aliquoted and stored at −80° C.
BCL9 peptide synthesis and purification. Human BCL9 (residues 350-375), and […] biotinylated human BCL9 (residues 350-375) were synthesized. All synthesized peptides were purified by HPLC with purity >95%. The structures were validated by LC/MS. The sequences are as follows (Ahx, 6-aminohexanoic acid).
AlphaScreen competitive inhibition assays. For the competitive inhibition assays of the β-catenin/BCL9 PPI, the negative control (equivalent to 0% inhibition) refers to 5.0 nM of biotinylated BCL9, 40 nM of His6-tagged β-catenin, and 10 μg/mL of donor and acceptor beads in a final volume of 25 μL assay buffer, but no tested inhibitor present. The positive control (equivalent to 100% inhibition) refers to 5.0 nM of biotinylated BCL9 and […] of donor and acceptor beads in a final volume of 25 μL assay buffer.
For the β-catenin/BCL9 assay, 5 nM of biotinylated BCL9 and 40 nM of His6-tagged β-catenin were incubated in assay buffer at 4° C. for 30 min. Different concentrations of the tested inhibitor were added and incubated in 20 μL assay buffer at 4° C. for another 1 h. All of the above assay plates were covered and gently mixed on an orbital shaker. The donor and acceptor beads were then added to the plates to a final concentration of 10 μg/mL in 25 μL assay buffer. The mixture was incubated for 1 h at 4° C. before detection. The IC50 value was determined by nonlinear least-square analysis of GraphPad Prism 5.0. The Ki values were derived from the IC50 values using a method reported by Nikolovska-Coleska et al (Nikolovska-Coleska, Z.; Wang, R.; Fang, X.; Pan, H.; Tomita, Y.; Li, P.; Roller, P. P.; Krajewski, K.; Saito, N. G.; Stuckey, J. A.; Wang, S. Development and optimization of a binding assay for the XIAP BIR3 domain using fluorescence polarization. Anal. Biochem. 2004, 332, 261-273.). The assays were conducted under the conditions required by Nikolovska-Coleska et al.'s equation for determining the Ki values. All of the experiments were performed in triplicate. The results were expressed as mean±standard deviation.

Where [1] appears, read: experiment 1, read-out: Ki (μM ± SD) experiment 1.
[2] abbreviates: experiment 2, read-out: Ki (μM ± SD) experiment 2.
Where [3] appears, read: experiment 3, read-out: Ki (μM ± SD) experiment 3.
[4] abbreviates: experiment 4, read-out: Ki (μM ± SD) experiment 4.

Structures can show the parent of a compound that is named as a salt. Where two headings read alike, the source gives them in different places.

On to `O=C(Nc1cc(F)cc(C(=O)N2CCN(C(=O)c3ccc(O[C@H]4CCNC4)c(C4CCCCC4)c3)CC2)c1)C1CCNCC1` [Compound 5, (S)—N-(3-(4-(3-cyclohexyl-4-(pyrrolidin-3-yloxy)benzoyl)piperazine-1-carbonyl)-5-fluorophenyl) piperidine-4-carboxamide ditrifluoroacetate], for which the Ki reads like this: under setting [1], 157 ± 17 µM; under setting [2], 160 ± 22 µM.

`NCCCC(=O)Nc1cc(F)cc(C(=O)N2CCN(C(=O)c3ccc(O[C@H]4CCNC4)c(C4CCCCC4)c3)CC2)c1` [Compound 1, (S)-4-Amino-N-(3-(4-(3-cyclohexyl-4-(pyrrolidin-3-yloxy)benzoyl)piperazine-1-carbonyl)-5-fluorophenyl) butanamide ditrifluoroacetate]: the Ki stood at 310 ± 48 µM under setting [1] and 310 ± 23 µM under setting [2].

On to `CC(C)(CN)C(=O)Nc1cc(F)cc(C(=O)N2CCN(C(=O)c3ccc(O[C@H]4CCNC4)c(C4CCC(C(F)(F)F)CC4)c3)CC2)c1` (stereo partly drawn) [Compound 11, (S)-3-amino-N-(3-fluoro-5-(4-(4-(pyrrolidin-3-yloxy)-3-(4-(trifluoromethyl)cyclohexyl)benzoyl)piperazine-1-carbonyl)phenyl)-2,2-dimethylpropanamide ditrifluoroacetate], for which the Ki under setting [1] came to 170 ± 23 µM and the Ki under setting [2] came to 150 ± 18 µM.

For the compound `CC(=O)Nc1cc(F)cc(C(=O)N2CCN(C(=O)c3ccc(O[C@H]4CCNC4)c(C4CCCCC4)c3)[C@@H](C(C)C)C2)c1` [Compound 15, N-(3-((S)-4-(3-Cyclohexyl-4-(((S)-pyrrolidin-3-yl)oxy)benzoyl)-3-isopropylpiperazine-1-carbonyl)-5-fluorophenyl) acetamide trifluoroacetate], the Ki reads like this: under setting [3], 280 ± 27 µM; under setting [4], 290 ± 61 µM.

In the case of `CC[C@H]1CN(C(=O)c2cc(F)cc(NC(C)=O)c2)CCN1C(=O)c1ccc(O[C@H]2CCNC2)c(C2CCCCC2)c1` [Compound 14, N-(3-((S)-4-(3-Cyclohexyl-4-(((S)-pyrrolidin-3-yl)oxy)benzoyl)-3-ethylpiperazine-1-carbonyl)-5-fluorophenyl) acetamide trifluoroacetate], the Ki under setting [3] stood at 790 ± 58 µM and the Ki under setting [4] worked out at 780 ± 130 µM.

As to `CC(=O)Nc1cc(F)cc(C(=O)N2CCN(C(=O)c3ccc(O[C@H]4CCNC4)c(C4CCCCC4)c3)[C@@H](C)C2)c1` [Compound 13, N-(3-((S)-4-(3-Cyclohexyl-4-(((S)-pyrrolidin-3-yl)oxy)benzoyl)-3-methylpiperazine-1-carbonyl)-5-fluorophenyl) acetamide trifluoroacetate], the Ki is, setting by setting: under setting [3], 330 ± 34 µM; under setting [4], 100 ± 18 µM.

For `CC(=O)Nc1cc(F)cc(C(=O)N2CCN(C(=O)c3ccc(O[C@H]4CCNC4)c(C4CCCCC4)c3)CC2)c1` [Compound 12, (S)—N-(3-(4-(3-Cyclohexyl-4-(pyrrolidin-3-yloxy)benzoyl)piperazine-1-carbonyl)-5-fluorophenyl) acetamide trifluoroacetate], the inhibitory constant (Ki) is 61 ± 7.5 µM under setting [3] and 37 ± 3.6 µM under setting [4].

Consider `CN(C(=O)CCCCN)c1cc(F)cc(C(=O)N2CCN(C(=O)c3ccc(O[C@H]4CCNC4)c(C4CCCCC4)c3)CC2)c1` [Compound 7, (S)-5-amino-N-(3-(4-(3-cyclohexyl-4-(pyrrolidin-3-yloxy)benzoyl)piperazine-1-carbonyl)-5-fluorophenyl)-N-methylpentanamide ditrifluoroacetate], for which the Ki reads like this: under setting [1], 730 ± 73 µM; under setting [2], 240 ± 33 µM.

For `CN(C(=O)C1CCNCC1)c1cc(F)cc(C(=O)N2CCN(C(=O)c3ccc(O[C@H]4CCNC4)c(C4CCCCC4)c3)CC2)c1` [Compound 10, (S)—N-(3-(4-(3-cyclohexyl-4-(pyrrolidin-3-yloxy)benzoyl)piperazine-1-carbonyl)-5-fluorophenyl)-N-methylpiperidine-4-carboxamide ditrifluoroacetate], the Ki was 420 ± 50 µM under setting [1] and 76 ± 8.3 µM under setting [2].

Turning to `CC(C)(CN)C(=O)Nc1cc(F)cc(C(=O)N2CCN(C(=O)c3ccc(O[C@H]4CCNC4)c(C4CCCCC4)c3)CC2)c1` [Compound 4, (S)-3-Amino-N-(3-(4-(3-cyclohexyl-4-(pyrrolidin-3-yloxy)benzoyl)piperazine-1-carbonyl)-5-fluorophenyl)-2,2-dimethylpropanamide ditrifluoroacetate], the Ki runs as follows: under setting [1], 780 ± 59 µM; under setting [2], 310 ± 43 µM.

Take `NCCCCC(=O)Nc1cc(F)cc(C(=O)N2CCN(C(=O)c3ccc(O[C@H]4CCNC4)c(C4CCCCC4)c3)CC2)c1` [Compound 2, (S)-5-Amino-N-(3-(4-(3-cyclohexyl-4-(pyrrolidin-3-yloxy)benzoyl)piperazine-1-carbonyl)-5-fluorophenyl) pentanamide ditrifluoroacetate]: the inhibition constant Ki by setting is: under setting [1], 230 ± 33 µM; under setting [2], 220 ± 26 µM.

Take `CN(C(=O)CCCN)c1cc(F)cc(C(=O)N2CCN(C(=O)c3ccc(O[C@H]4CCNC4)c(C4CCCCC4)c3)CC2)c1` [Compound 6, (S)-4-amino-N-(3-(4-(3-cyclohexyl-4-(pyrrolidin-3-yloxy)benzoyl)piperazine-1-carbonyl)-5-fluorophenyl)-N-methylbutanamide ditrifluoroacetate]: the Ki by setting is: under setting [1], 840 ± 64 µM; under setting [2], 380 ± 44 µM.

Regarding `CC(=O)Nc1cc(F)cc(C(=O)N2CCN(C(=O)c3ccc(O[C@H]4CCNC4)c(C4CCCCC4)c3)[C@@H](CC(C)C)C2)c1` [Compound 16, N-(3-((S)-4-(3-Cyclohexyl-4-(((S)-pyrrolidin-3-yl)oxy)benzoyl)-3-isobutylpiperazine-1-carbonyl)-5-fluorophenyl)acetamide trifluoroacetate], the Ki under setting [3] is 330 ± 43 µM and the inhibitory constant (Ki) under setting [4] came out at 200 ± 20 µM.

With `CN(C(=O)C(C)(C)N)c1cc(F)cc(C(=O)N2CCN(C(=O)c3ccc(O[C@H]4CCNC4)c(C4CCCCC4)c3)CC2)c1` [Compound 8, (S)-2-amino-N-(3-(4-(3-cyclohexyl-4-(pyrrolidin-3-yloxy)benzoyl)piperazine-1-carbonyl)-5-fluorophenyl)-N,2-dimethylpropanamide ditrifluoroacetate], the Ki came out at 32 ± 4 µM under setting [1] and 71 ± 8.7 µM under setting [2].

Usually Ki stands for the dissociation constant of the complex between target and ligand, obtained from inhibition or displacement.
